Patent US20040191115A1 (priority 2003, published 2004)
“And” between values parts separate entries of the source, which are not always exact repeats. Equal values may be shown once. Read-outs that look alike come from different tables or passages of the source.

Columns and labels:
[1] = tested on: bacillus atrophaeus spores; details: 3.12 percent H2O2, no machine operation, without cartons; for average count of colony forming units for the time period / log of average count for the time period: mean of samples
Procedure: (§1) Studies were conducted to determine the microbial eradication on mandrels 34 that were subjected to vaporized sterilant introduced at the heaters 40. […] The efficacy of the mandrel sterilization was studied for both the mandrel caps 35 and the mandrel side tubes 37 (see FIG. 3).
(§2) Each of the studies was further carried out using a testing media of bacillus atrophaeus spores for inoculating the mandrels. The mandrels were inoculated by spraying, using an aerating spray bottle having a solution with a concentration of about 7 log bacillus spores. The mandrels were then allowed to air dry. Controls were swabbed using cotton swabs to assure that the mandrels were properly inoculated. Following the machine operating period of the test, the mandrels were swabbed and the bacillus spores transferred to an agar media for incubation of the spores (at 32° C. for 48 hours) and subsequent recovery.
In this part of the analysis, the form, fill and seal machine was operated without cartons and without indexing (rotation) of the mandrels.

[2] = tested on: bacillus atrophaeus spores; details: 2.59 percent H2O2, slow speed, without cartons; for average count of colony forming units for the time period / log of average count for the time period: mean of samples
Procedure: as §1, §2
The data was collected by taking swab samples at the mandrel cap 35 (represented by C in the Table) and on the mandrel side tubes 37 (represented by T in the Table).

[3] = time 0 min, swab site C (mandrel cap)
[4] = time 0 min, swab site T (mandrel side tubes)
[5] = time 15 min, swab site C (mandrel cap)
[6] = time 15 min, swab site T (mandrel side tubes)
[7] = time 30 min, swab site C (mandrel cap)
[8] = time 30 min, swab site T (mandrel side tubes)
[9] = time 45 min, swab site C (mandrel cap)
[10] = time 45 min, swab site T (mandrel side tubes)
[11] = time 60 min, swab site C (mandrel cap)

Structure (SMILES): OO [hydrogen peroxide]
- average count of colony forming units for the time period ([1]; time 0 min): 3.51E+05 CFU/mandrel
- log of average count for the time period ([1]; time 0 min): 5.55 log
- average count of colony forming units for the time period ([1]; time 15 min): 2.90E+05 CFU/mandrel
- log of average count for the time period ([1]; time 15 min): 5.46 log
- Average CFU/mL ([1]; time 15 min): 7.85E+04 CFU/mL and 6.65E+04 CFU/mL
- Average CFU/mandrel ([1]; time 15 min): 3.14E+05 CFU/mandrel and 2.66E+05 CFU/mandrel
- Log (of Average CFU/mandrel) ([1]; time 15 min): 5.50 Log and 5.42 Log
- Result #1 CFU/mL ([1]; time 15 min): 7.80E+04 CFU/mL and 4.70E+04 CFU/mL
- Result #2 CFU/mL ([1]; time 15 min): 7.90E+04 CFU/mL and 8.60E+04 CFU/mL
- Log Red. (Avg.) ([1]; time 15 min relative to time zero): 0.08 Log
- average count of colony forming units for the time period ([1]; time 30 min): 2.72E+05 CFU/mandrel
- log of average count for the time period ([1]; time 30 min): 5.43 log
- Log (of Average CFU/mandrel) ([1]; time 30 min): 5.47 Log and 5.28 Log and 5.49 Log
- Result #1 CFU/mL ([1]; time 30 min): 7.40E+04 CFU/mL and 4.30E+04 CFU/mL and 7.80E+04 CFU/mL
- Log Red. (Avg.) ([1]; time 30 min relative to time zero): 0.11 Log
- average count of colony forming units for the time period ([2]; time 0 min, cap): 4.82E+05 CFU/mandrel
- log of average count for the time period ([2]; time 0 min, cap): 5.68 log
- average count of colony forming units for the time period ([2]; time 0 min, side tubes): 6.67E+05 CFU/mandrel
- log of average count for the time period ([2]; time 0 min, side tubes): 5.82 log
- Average CFU/mL [2, 3]: 1.19E+05 CFU/mL and 1.23E+05 CFU/mL
- Average CFU/mandrel [2, 3]: 4.74E+05 CFU/mandrel and 4.90E+05 CFU/mandrel
- Log (of Average CFU/mandrel) [2, 3]: 5.68 Log and 5.69 Log
- Result 1 CFU/mL [2, 3]: 1.24E+05 CFU/mL and 1.19E+05 CFU/mL
- Result #2 CFU/mL [2, 3]: 1.13E+05 CFU/mL and 1.26E+05 CFU/mL
- Log (of Average CFU/mandrel) [2, 4]: 5.95 Log and 5.65 Log
- Result #2 CFU/mL [2, 4]: 2.09E+05 CFU/mL and 1.17E+05 CFU/mL
- average count of colony forming units for the time period ([2]; time 15 min, cap): 3.47E+05 CFU/mandrel
- log of average count for the time period ([2]; time 15 min, cap): 5.54 log
- average count of colony forming units for the time period ([2]; time 15 min, side tubes): 4.02E+05 CFU/mandrel
- log of average count for the time period ([2]; time 15 min, side tubes): 5.60 log
- Average CFU/mandrel [2, 5]: 2.62E+05 CFU/mandrel and 4.32E+05 CFU/mandrel
- Log (of Average CFU/mandrel) [2, 5]: 5.42 Log and 5.64 Log
- Average CFU/mL [2, 6]: 1.01E+05 CFU/mL and 1.00E+05 CFU/mL
- Average CFU/mandrel [2, 6]: 4.04E+05 CFU/mandrel and 4.00E+05 CFU/mandrel
- Log (of Average CFU/mandrel) [2, 6]: 5.61 Log and 5.60 Log
- Result 1 CFU/mL [2, 6]: 1.03E+05 CFU/mL and 1.06E+05 CFU/mL
- Result #2 CFU/mL [2, 6]: 9.90E+04 CFU/mL and 9.40E+04 CFU/mL
- Log Red. (Avg) ([2]; time 15 min relative to time zero, cap): 0.14 Log
- Log Red. (Avg) ([2]; time 15 min relative to time zero, side tubes): 0.22 Log
- average count of colony forming units for the time period ([2]; time 30 min, cap): 3.82E+05 CFU/mandrel
- log of average count for the time period ([2]; time 30 min, cap): 5.58 log
- average count of colony forming units for the time period ([2]; time 30 min, side tubes): 4.34E+05 CFU/mandrel
- log of average count for the time period ([2]; time 30 min, side tubes): 5.64 log
- Average CFU/mandrel [2, 7]: 2.66E+05 CFU/mandrel and 4.98E+05 CFU/mandrel
- Log (of Average CFU/mandrel) [2, 7]: 5.42 Log and 5.70 Log
- Average CFU/mandrel [2, 8]: 4.74E+05 CFU/mandrel and 3.94E+05 CFU/mandrel
- Log (of Average CFU/mandrel) [2, 8]: 5.68 Log and 5.60 Log
- Result #2 CFU/mL [2, 8]: 1.15E+05 CFU/mL and 1.08E+05 CFU/mL
- Log Red. (Avg) ([2]; time 30 min relative to time zero, cap): 0.10 Log
- Log Red. (Avg) ([2]; time 30 min relative to time zero, side tubes): 0.19 Log
- average count of colony forming units for the time period ([2]; time 45 min, cap): 6.31E+05 CFU/mandrel
- log of average count for the time period ([2]; time 45 min, cap): 5.80 log
- average count of colony forming units for the time period ([2]; time 45 min, side tubes): 8.04E+05 CFU/mandrel
- log of average count for the time period ([2]; time 45 min, side tubes): 5.91 log
- Average CFU/mL [2, 9]: 1.43E+05 CFU/mL and 1.73E+05 CFU/mL
- Average CFU/mandrel [2, 9]: 5.72E+05 CFU/mandrel and 6.90E+05 CFU/mandrel
- Log (of Average CFU/mandrel) [2, 9]: 5.76 Log and 5.84 Log
- Result 1 CFU/mL [2, 9]: 1.51E+05 CFU/mL and 1.64E+05 CFU/mL
- Result #2 CFU/mL [2, 9]: 1.35E+05 CFU/mL and 1.81E+05 CFU/mL
- Average CFU/mL [2, 10]: 1.51E+05 CFU/mL and 2.52E+05 CFU/mL
- Log (of Average CFU/mandrel) [2, 10]: 5.78 Log and 6.00 Log
- Result 1 CFU/mL [2, 10]: 1.67E+05 CFU/mL and 2.49E+05 CFU/mL
- Result #2 CFU/mL [2, 10]: 1.34E+05 CFU/mL and 2.54E+05 CFU/mL
- Log Red. (Avg) ([2]; time 45 min relative to time zero, cap): −0.12 Log
- Log Red. (Avg) ([2]; time 45 min relative to time zero, side tubes): −0.08 Log
- average count of colony forming units for the time period ([2]; time 60 min, cap): 3.24E+05 CFU/mandrel
- log of average count for the time period ([2]; time 60 min, cap): 5.51 log
- average count of colony forming units for the time period ([2]; time 60 min, side tubes): 6.01E+05 CFU/mandrel
- log of average count for the time period ([2]; time 60 min, side tubes): 5.78 log
- Average CFU/mL [2, 11]: 7.35E+04 CFU/mL and 8.85E+04 CFU/mL
- Average CFU/mandrel [2, 11]: 2.94E+05 CFU/mandrel and 3.54E+05 CFU/mandrel
- Log (of Average CFU/mandrel) [2, 11]: 5.47 Log and 5.55 Log
- Result 1 CFU/mL [2, 11]: 6.30E+04 CFU/mL and 8.50E+04 CFU/mL
